Paper PMC8709211, “Improving Membrane Activity and Cargo Delivery Efficacy of a Cell-Penetrating Peptide by Loading with Carboranes” (Pharmaceutics, 2021)

Tests used:
[1] = Circular dichroism spectroscopy (alpha-helical content, R-value); assay type: physicochemical; conditions: for % of alpha helix, 50% TFE / % of alpha helix, Phosphate Buffer: CD, calculated per ref 31; for % of alpha helix, 50% TFE: 20 µM peptide in 10 mM phosphate buffer (pH 7.0) with 50% TFE (v/v); for % of alpha helix, Phosphate Buffer / R-value, Phosphate Buffer: 20 µM peptide in 10 mM phosphate buffer (pH 7.0); for R-value, Phosphate Buffer / R-value, 50% TFE: ratio between the molar ellipticity values at 222 and 208 nm; for R-value, 50% TFE: 20 µM peptide in 10 mM phosphate buffer (pH 7.0) with 50% TFE
Method: Conjugates were dissolved in 10 mM phosphate buffer (pH 7.0), either alone or supplemented with 50% TFE (v/v), to a final concentration of 20 µM. CD spectra of all conjugates were recorded from 180–260 nm (0.5 nm intervals) on a J-715 spectropolarimeter (JASCO, Pfungstadt, Germany) in an N2 atmosphere.
To find out more, we performed CD spectroscopy for all peptides solved either in phosphate buffer or in phosphate buffer supplemented with trifluoroethanol (TFE), respectively. All conjugates and sC18 adopted an alpha-helix, when present in phosphate buffer with TFE (Figure S20). On the other hand, when CB-conjugates were solved in phosphate buffer only (Figure 1C), some of them directly formed distinct secondary structures. […] Taking this observation into account, we concluded that the number of CB moieties actually promoted the formation of alpha-helical structures. This effect might be further explained by the helical wheel projection of each conjugate showing that the hydrophobic face of the peptide was clearly enlarged when three or more CB units were attached (see Figure S21). […]

[2] = Critical micelle concentration (CMC) determination by UV-VIS; assay type: physicochemical; conditions: peptide in water, 1–200 µM; UV absorbance at 255 nm plotted against logarithm of peptide concentration, intersection point of two lines
Method: Peptide conjugates were dissolved in water and different concentrations (1–200 µM) were prepared. UV-VIS spectra ranging from 200–700 nm were recorded using a 1 cm path length quartz cuvette in a Spectroquant Pharo 300 photometer (Merck, Darmstadt, Germany). The absorbance at 255 nm was plotted against the logarithm of the peptide concentration. The intersection point of two lines was determined as CMC.
Since this effect was obviously dependent on the hydrophobic nature of the conjugates, we were then interested in whether they would also self-assemble and form nanostructures, such as micelles or fibrils. An easy to apply and fast method makes use of changes in spectroscopic properties associated with micelle formation. For this, one measures the UV absorbance at a specific wavelength as a function of the concentration. Because aggregates like micelles and free molecule species contribute to a different extent to the absorbed UV light, an abrupt change of the slope occurs above a certain point. The corresponding concentration is defined as the critical micelle concentration (CMC). We measured the UV-VIS spectra of all CB-sC18 conjugates and observed for all an additional concentration-dependent maximum at 255 nm (Figure 1A,B and Table 2), whereas this maximum was not detected for meta-carborane-1-carboxylic acid (Figure S14) or sC18 alone (Figure S15).
Thus, we hypothesized this maximum as evidence for a possible self-assembly, and by plotting the absorbance at 255 nm against the logarithm of the peptide concentration, we assigned the intersection point as CMC.

| % of alpha helix, 50% TFE [1] | % of alpha helix, Phosphate Buffer [1] | R-value, Phosphate Buffer [1] | R-value, 50% TFE [1] | CMC [2] | Substance |
| --- | --- | --- | --- | --- | --- |
| 59.84% | 22.59% | 0.92 | 0.84 | – | KKKK‐LLIILRRRIRKQAHAHSK [CB4-pVEC, pVEC conjugate bearing four meta-carborane clusters] |
| 48.60% | 12.18% | 0.37 | 0.73 | – | LLIILRRRIRKQAHAHSK [pVEC, VE-cadherin-derived cell-penetrating peptide, reference compound] |
| 45.48% | 22.96% | 0.79 | 0.79 | – | CB‐KKKK‐LLIILRRRIRKQAHAHSK [CB5-pVEC, pVEC conjugate bearing five meta-carborane clusters] |

More lines, now with the values behind:

| Substance | % of alpha helix, 50% TFE [1] | % of alpha helix, Phosphate Buffer [1] | R-value, Phosphate Buffer [1] | R-value, 50% TFE [1] | CMC [2] |
| --- | --- | --- | --- | --- | --- |
| K‐LLIILRRRIRKQAHAHSK [CB1-pVEC, pVEC conjugate bearing one meta-carborane cluster] | 44.28% | 17.72% | 0.57 | 0.82 | – |
| KKK-GLRKRLRKFRNKIKEK [CB3-sC18, sC18 conjugate bearing three meta-carborane clusters] | 56.10% | 16.68% | 0.56 | 0.88 | 44.46 ± 1.14 µM |
| KK‐LLIILRRRIRKQAHAHSK [CB2-pVEC, pVEC conjugate bearing two meta-carborane clusters] | 51.36% | 20.41% | 0.84 | 0.82 | – |
| KKK‐LLIILRRRIRKQAHAHSK [CB3-pVEC, pVEC conjugate bearing three meta-carborane clusters] | 65.76% | 16.98% | 0.99 | 0.82 | – |
